Data published in ChEMBL document CHEMBL5724806, “Unraveling interindividual differences and functional consequences of gut microbial metabolism of immunosuppressants” (2024).

Legend:
Assay type in all cases: ADME
[1] = (§1) The drug is tested on Actinomyces naeslundi strain: DSM43013 for biotransformation under anaerobic condition. The drug concentrations were measured over 6 timepoints collected between 0 and 12 hours of incubation by liquid-chromatography-coupled mass spectrometry (LC–MS); parameters: dose 5 uM, timepoint 0, 1.5, 3, 6, 9, 12 hours; details: actinomyces naeslundii, 5 µM
[2] = The drug is tested on Bifidobacterium adolescentis strain: DSM20083 for biotransformation under anaerobic condition. The drug concentrations were measured over 6 timepoints collected between 0 and 12 hours of incubation by liquid-chromatography-coupled mass spectrometry (LC–MS); parameters: dose 5 uM, timepoint 0, 1.5, 3, 6, 9, 12 hours; details: 5 µM
[3] = The drug is tested on Bacteroides ovatus strain: ATCC 8483 for biotransformation under anaerobic condition. The drug concentrations were measured over 6 timepoints collected between 0 and 12 hours of incubation by liquid-chromatography-coupled mass spectrometry (LC–MS); parameters: dose 5 uM, timepoint 0, 1.5, 3, 6, 9, 12 hours; details: 5 µM
[4] = The drug is tested on Bacteroides vulgatus strain: DSM1447 for biotransformation under anaerobic condition. The drug concentrations were measured over 6 timepoints collected between 0 and 12 hours of incubation by liquid-chromatography-coupled mass spectrometry (LC–MS); parameters: dose 5 uM, timepoint 0, 1.5, 3, 6, 9, 12 hours; details: phocaeicola vulgatus, 5 µM
[5] = The drug is tested on Bacteroides xylanisolvens strain: HM 722 for biotransformation under anaerobic condition. The drug concentrations were measured over 6 timepoints collected between 0 and 12 hours of incubation by liquid-chromatography-coupled mass spectrometry (LC–MS); parameters: dose 5 uM, timepoint 0, 1.5, 3, 6, 9, 12 hours; details: 5 µM
[6] = The drug is tested on Capnocytophaga ochracea strain: DSM7271 for biotransformation under anaerobic condition. The drug concentrations were measured over 6 timepoints collected between 0 and 12 hours of incubation by liquid-chromatography-coupled mass spectrometry (LC–MS); parameters: dose 5 uM, timepoint 0, 1.5, 3, 6, 9, 12 hours; details: 5 µM
[7] = The drug is tested on Odoribacter splanchnicus strain: DSM20712 for biotransformation under anaerobic condition. The drug concentrations were measured over 6 timepoints collected between 0 and 12 hours of incubation by liquid-chromatography-coupled mass spectrometry (LC–MS); parameters: dose 5 uM, timepoint 0, 1.5, 3, 6, 9, 12 hours; details: 5 µM
[8] = The drug is tested on Parabacteroides merdae strain: DSM19495 for biotransformation under anaerobic condition. The drug concentrations were measured over 6 timepoints collected between 0 and 12 hours of incubation by liquid-chromatography-coupled mass spectrometry (LC–MS); parameters: dose 5 uM, timepoint 0, 1.5, 3, 6, 9, 12 hours; details: 5 µM
[9] = The drug is tested on Clostridium bolteae strain: DSM15670 for biotransformation under anaerobic condition. The drug concentrations were measured over 6 timepoints collected between 0 and 12 hours of incubation by liquid-chromatography-coupled mass spectrometry (LC–MS); parameters: dose 5 uM, timepoint 0, 1.5, 3, 6, 9, 12 hours; details: enterocloster bolteae, 5 µM
[10] = The drug is tested on Eubacterium rectale strain: DSM17629 for biotransformation under anaerobic condition. The drug concentrations were measured over 6 timepoints collected between 0 and 12 hours of incubation by liquid-chromatography-coupled mass spectrometry (LC–MS); parameters: dose 5 uM, timepoint 0, 1.5, 3, 6, 9, 12 hours; details: agathobacter rectalis, 5 µM
[11] = The drug is tested on Gemella morbillorum strain: DSM20572 for biotransformation under anaerobic condition. The drug concentrations were measured over 6 timepoints collected between 0 and 12 hours of incubation by liquid-chromatography-coupled mass spectrometry (LC–MS); parameters: dose 5 uM, timepoint 0, 1.5, 3, 6, 9, 12 hours; details: 5 µM
[12] = The drug is tested on Streptococcus anginosus strain: DSM20563 for biotransformation under anaerobic condition. The drug concentrations were measured over 6 timepoints collected between 0 and 12 hours of incubation by liquid-chromatography-coupled mass spectrometry (LC–MS); parameters: dose 5 uM, timepoint 0, 1.5, 3, 6, 9, 12 hours; details: 5 µM
[13] = (§2) The drug is tested on Actinomyces naeslundi strain: DSM43013 for biotransformation under microaerobic condition. The drug concentrations were measured over 6 timepoints collected between 0 and 12 hours of incubation by liquid-chromatography-coupled mass spectrometry (LC–MS); parameters: dose 5 uM, timepoint 0, 1.5, 3, 6, 9, 12 hours; details: actinomyces naeslundii, 5 µM
[14] = The drug is tested on Bifidobacterium longum strain: DSM20088 for biotransformation under microaerobic condition. The drug concentrations were measured over 6 timepoints collected between 0 and 12 hours of incubation by liquid-chromatography-coupled mass spectrometry (LC–MS); parameters: dose 5 uM, timepoint 0, 1.5, 3, 6, 9, 12 hours; details: 5 µM
[15] = The drug is tested on Gemella haemolysans strain: DSM107751 for biotransformation under microaerobic condition. The drug concentrations were measured over 6 timepoints collected between 0 and 12 hours of incubation by liquid-chromatography-coupled mass spectrometry (LC–MS); parameters: dose 5 uM, timepoint 0, 1.5, 3, 6, 9, 12 hours; details: 5 µM
[16] = The drug is tested on Lactobacillus fermentum strain: DSM20052 for biotransformation under microaerobic condition. The drug concentrations were measured over 6 timepoints collected between 0 and 12 hours of incubation by liquid-chromatography-coupled mass spectrometry (LC–MS); parameters: dose 5 uM, timepoint 0, 1.5, 3, 6, 9, 12 hours; details: limosilactobacillus fermentum, 5 µM
[17] = The drug is tested on Streptococcus sanguinis strain: DSM20567 for biotransformation under microaerobic condition. The drug concentrations were measured over 6 timepoints collected between 0 and 12 hours of incubation by liquid-chromatography-coupled mass spectrometry (LC–MS); parameters: dose 5 uM, timepoint 0, 1.5, 3, 6, 9, 12 hours; details: 5 µM
[18] = as §1, with “the gut metagenome community of A-06 with ENA study accession number: PRJEB31790” for “Actinomyces naeslundi strain: DSM43013”, “7” for “6”; parameters: dose 5 uM, timepoint 0, 0.75, 1.5, 3, 6, 9, 12 hours; details: 5 µM
[19] = as §1, with “the gut metagenome community of P-03 with ENA study accession number: PRJEB31790” for “Actinomyces naeslundi strain: DSM43013”, “7” for “6”; parameters: dose 5 uM, timepoint 0, 0.75, 1.5, 3, 6, 9, 12 hours; details: 5 µM
[20] = as §1, with “the gut metagenome community of P-04 with ENA study accession number: PRJEB31790” for “Actinomyces naeslundi strain: DSM43013”, “7” for “6”; parameters: dose 5 uM, timepoint 0, 0.75, 1.5, 3, 6, 9, 12 hours; details: 5 µM
[21] = as §1, with “the gut metagenome community of T-02 with ENA study accession number: PRJEB31790” for “Actinomyces naeslundi strain: DSM43013”, “7” for “6”; parameters: dose 5 uM, timepoint 0, 0.75, 1.5, 3, 6, 9, 12 hours; details: 5 µM
[22] = as §1, with “the gut metagenome community of T-03 with ENA study accession number: PRJEB31790” for “Actinomyces naeslundi strain: DSM43013”, “7” for “6”; parameters: dose 5 uM, timepoint 0, 0.75, 1.5, 3, 6, 9, 12 hours; details: 5 µM
[23] = as §1, with “the gut metagenome community of T-04 with ENA study accession number: PRJEB31790” for “Actinomyces naeslundi strain: DSM43013”, “7” for “6”; parameters: dose 5 uM, timepoint 0, 0.75, 1.5, 3, 6, 9, 12 hours; details: 5 µM
[24] = as §2, with “the gut metagenome community of A-01 with ENA study accession number: PRJEB31790” for “Actinomyces naeslundi strain: DSM43013”, “7” for “6”; parameters: dose 5 uM, timepoint 0, 0.75, 1.5, 3, 6, 9, 12 hours; details: 5 µM
[25] = as §2, with “the gut metagenome community of A-02 with ENA study accession number: PRJEB31790” for “Actinomyces naeslundi strain: DSM43013”, “7” for “6”; parameters: dose 5 uM, timepoint 0, 0.75, 1.5, 3, 6, 9, 12 hours; details: 5 µM
[26] = as §2, with “the gut metagenome community of A-03 with ENA study accession number: PRJEB31790” for “Actinomyces naeslundi strain: DSM43013”, “7” for “6”; parameters: dose 5 uM, timepoint 0, 0.75, 1.5, 3, 6, 9, 12 hours; details: 5 µM
[27] = as §2, with “the gut metagenome community of A-06 with ENA study accession number: PRJEB31790” for “Actinomyces naeslundi strain: DSM43013”, “7” for “6”; parameters: dose 5 uM, timepoint 0, 0.75, 1.5, 3, 6, 9, 12 hours; details: 5 µM
[28] = as §2, with “the gut metagenome community of T-01 with ENA study accession number: PRJEB31790” for “Actinomyces naeslundi strain: DSM43013”, “7” for “6”; parameters: dose 5 uM, timepoint 0, 0.75, 1.5, 3, 6, 9, 12 hours; details: 5 µM
[29] = as §2, with “the gut metagenome community of T-02 with ENA study accession number: PRJEB31790” for “Actinomyces naeslundi strain: DSM43013”, “7” for “6”; parameters: dose 5 uM, timepoint 0, 0.75, 1.5, 3, 6, 9, 12 hours; details: 5 µM
[30] = as §2, with “the gut metagenome community of T-04 with ENA study accession number: PRJEB31790” for “Actinomyces naeslundi strain: DSM43013”, “7” for “6”; parameters: dose 5 uM, timepoint 0, 0.75, 1.5, 3, 6, 9, 12 hours; details: 5 µM

Bacterial Biotransformation [1] | Bacterial Biotransformation [2] | Bacterial Biotransformation [3] | Bacterial Biotransformation [4] | Bacterial Biotransformation [5] | Bacterial Biotransformation [6] | Bacterial Biotransformation [7] | Bacterial Biotransformation [8] | Bacterial Biotransformation [9] | Bacterial Biotransformation [10] | Bacterial Biotransformation [11] | Bacterial Biotransformation [12] | Bacterial Biotransformation [13] | Bacterial Biotransformation [14] | Bacterial Biotransformation [16] | Bacterial Biotransformation [17] | Bacterial Biotransformation [18] | Bacterial Biotransformation [19] | Bacterial Biotransformation [20] | Structure (SMILES) | Bacterial Biotransformation [15] | further results
Compound NOT metabolized | Compound NOT metabolized | Compound NOT metabolized | Compound NOT metabolized | Compound NOT metabolized | Compound NOT metabolized | Compound NOT metabolized | Compound NOT metabolized | Compound NOT metabolized | Compound NOT metabolized | Compound NOT metabolized | Compound NOT metabolized | Compound NOT metabolized | Compound NOT metabolized | Compound NOT metabolized | Compound NOT metabolized | Compound NOT metabolized | Compound NOT metabolized | Compound NOT metabolized | C[C@@H](NCCCc1cccc(C(F)(F)F)c1)c1cccc2ccccc12 | Compound NOT metabolized | Bacterial Biotransformation [21]: Compound NOT metabolized; Bacterial Biotransformation [22]: Compound NOT metabolized; Bacterial Biotransformation [23]: Compound NOT metabolized; Bacterial Biotransformation [24]: Compound NOT metabolized; Bacterial Biotransformation [25]: Compound NOT metabolized; Bacterial Biotransformation [26]: Compound NOT metabolized; Bacterial Biotransformation [27]: Compound NOT metabolized; Bacterial Biotransformation [28]: Compound metabolized; Bacterial Biotransformation [29]: Compound NOT metabolized; Bacterial Biotransformation [30]: Compound NOT metabolized
Compound NOT metabolized | Compound NOT metabolized | Compound NOT metabolized | Compound NOT metabolized | Compound NOT metabolized | Compound NOT metabolized | Compound NOT metabolized | Compound NOT metabolized | Compound NOT metabolized | Compound NOT metabolized | Compound NOT metabolized | Compound NOT metabolized | Compound NOT metabolized | Compound NOT metabolized | Compound NOT metabolized | Compound NOT metabolized | Compound metabolized | Compound metabolized | Compound NOT metabolized | CCCC1O[C@@H]2C[C@H]3[C@@H]4CCC5=CC(=O)C=C[C@]5(C)[C@H]4[C@@H](O)C[C@]3(C)[C@]2(C(=O)CO)O1 (stereo not given in full) [BUDESONIDE] | Compound NOT metabolized | Bacterial Biotransformation [21]: Compound NOT metabolized; Bacterial Biotransformation [22]: Compound NOT metabolized; Bacterial Biotransformation [23]: Compound NOT metabolized; Bacterial Biotransformation [24]: Compound NOT metabolized; Bacterial Biotransformation [25]: Compound metabolized; Bacterial Biotransformation [26]: Compound metabolized; Bacterial Biotransformation [27]: Compound metabolized; Bacterial Biotransformation [28]: Compound metabolized; Bacterial Biotransformation [29]: Compound NOT metabolized; Bacterial Biotransformation [30]: Compound metabolized
Compound NOT metabolized | Compound NOT metabolized | Compound NOT metabolized | Compound NOT metabolized | Compound NOT metabolized | Compound NOT metabolized | Compound NOT metabolized | Compound NOT metabolized | Compound NOT metabolized | Compound NOT metabolized | Compound NOT metabolized | Compound NOT metabolized | Compound NOT metabolized | Compound NOT metabolized | Compound NOT metabolized | Compound NOT metabolized | Compound metabolized | Compound NOT metabolized | Compound NOT metabolized | C=CC[C@@H]1/C=C(\C)C[C@H](C)C[C@H](OC)[C@H]2O[C@@](O)(C(=O)C(=O)N3CCCC[C@H]3C(=O)O[C@H](/C(C)=C/[C@@H]3CC[C@@H](O)[C@H](OC)C3)[C@H](C)[C@@H](O)CC1=O)[C@H](C)C[C@@H]2OC.O [TACROLIMUS] | Compound NOT metabolized | Bacterial Biotransformation [21]: Compound metabolized; Bacterial Biotransformation [22]: Compound NOT metabolized; Bacterial Biotransformation [23]: Compound NOT metabolized; Bacterial Biotransformation [24]: Compound NOT metabolized; Bacterial Biotransformation [25]: Compound metabolized; Bacterial Biotransformation [26]: Compound metabolized; Bacterial Biotransformation [27]: Compound metabolized; Bacterial Biotransformation [28]: Compound metabolized; Bacterial Biotransformation [29]: Compound metabolized; Bacterial Biotransformation [30]: Compound metabolized
